The values below come from patent US20250152601A1, “Compositions and Methods for the Treatment of Sexual Dysfunctions” (The Jonathan Hurt Living Trust, priority 2022, published 2025).

Where a name gives a salt, the structure may show the parent alone. Read-outs that look alike come from different tables or passages of the source.

Series [1] has as its system ejaculation/orgasm. Put plainly: Ejaculation scores D (strength of the muscle contractions during ejaculation) and DE (ease to achieve ejaculation), incl. FE/FO. The format is in vivo, human.
Experimental: Variations in TSF and other sexual responses were noticed after ingesting a treatment substance, and additional scores to describe these responses were recorded in some examples. In some examples the C score for TSF was localized only to the head (“glands”) of the penis when one or more C score measurements were taken prior to attempted or achieved ejaculation/orgasm. […] In some examples after ingesting a treatment substance, the speed of B score decrease from the first muscle contraction to the last muscle contraction of ejaculation was recorded as the “BS” score using terms such as “IS” for instantaneous loss of TSF where a B score of 0.0 occurred at or immediately after the first muscle contraction, “FT” for a fast loss of TSF, and “SL” for a slow loss of TSF. In some examples the minimum B score measured at or near the last muscle contraction was recorded as the “BM” score using the same scoring parameters as for the B score. […] In some examples the ease to achieve ejaculation was recorded as the “DE” score, with a score of 1.0 being ejaculation achieved with some difficulty, 2.0 being a typical/normal ease of ejaculation, and a 3.0 being of the ease of ejaculation was promoted. […] When a score (e.g., C, CT, A, B, BM, BS, D, DE) was not recorded or not applicable then “N/A” is listed for that score and that score was not used (no numeric score) for mathematical evaluations in such an occurrence.
Dietary vitamins and nutritional supplements were ingested about 7:00 AM to about 10:30 AM with coffee, and coffee consumption ended by about 12:00 PM or earlier. No food was ingested during the day before measurements as only one meal a day is typically eaten in the evening.
Measurements were made in the morning from about 7:30 AM until about 11:30 AM.
Dietary vitamins and nutritional supplements were ingested about 7:00 AM to about 10:30 AM with coffee, and coffee consumption ended by about 12:00 PM or earlier.
No food, dietary vitamins or nutritional supplements were ingested the day of the measurements until after the measurements were taken.
Series [2] in a line: Non-sexual side effects associated with ingesting treatment substances. Conditions: for non-sexual side effect / adverse event: after ingesting the treatment substance.
In series [3] the test system is tactile sexual function (TSF). In words: Self-measured tactile sexual function (TSF) scores C, CT, A, B, BM, BS after ingesting treatment substance(s).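 Also: Self-rated by the single male inventor (about 65 kg) after oral intake, capsules unless noted, on the TSF scale, each one-unit score rise means roughly double the sensation intensity.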
Text: Some treatment substances were in liquid form when orally ingested. For the Working Examples herein all treatment substances were in capsule form unless otherwise noted in the Tables herein. […] It is contemplated that the mg per kilogram dose of treatment substances and/or the time from ingesting one or more treatment substances may vary from person to person for optimum improvement in treating a sexual dysfunction (e.g., an SRSS including reduced TSF or absent TSF). In some instances, it is contemplated that ingesting one treatment substance may be done at a different time than ingesting another treatment substance to optimize the effect in treating a sexual dysfunction.
For a male, the A score is the highest intensity of TSF just before the first muscle contraction of ejaculation, and the B score is the highest intensity of TSF just after the first muscle contraction of ejaculation.
Series [4] relates to tactile sexual function (TSF). In words: C score at varying time points after ingestion (duration of effect; rise, peak, fall pattern or decline pattern). Format: in vivo, human. Conditions: C scores at 20 to 60 minutes. The source says:
Table 42 records the increases/decreases in C scores over time as a measure of the duration of the effect of ingesting a treatment substance on TSF, for some working examples listed in previous tables. These working examples measured TSF for C scores at varying time points after the first ingestion of a treatment substance and before the measurement of the B score. Negative time scores indicate that the C score measurement occurred prior to ingesting a treatment substance, such as at example T37:82 the […] time is listed as −20 as the measurement for the C score at the C1 time was made 20 minutes before ingesting the treatment substance. In some examples additional rows were used to record C scores (e.g., examples T37:82 and T40:1). The duration of the effect of treatment substance(s) on the C score varied, with some reaching a peak C score before the B score measurement (e.g., see example T37:43), and other still increasing in C score to the B score measurement (e.g., see example T41:8).
Early C score measurements, when available, are shown for 20, 30, 40, and/or 50 minutes. […] Individual combinations of Val and NAC and another treatment substance may vary from the average's rise, peak, fall pattern (e.g., T41:120). […]

The conditions of series [5]: in vivo; cited from earlier work.
Series [6] deals with sexual function. In words: Additional sexual effects after ingesting treatment substances (C score different, urination sensitivity, ease to ejaculate). Format: in vivo, human. Conditions: 3000 mg/day, after about a week.
The target of series [7] is mGlu5-R (Homo sapiens, UniProt P41594). As to conditions: Glu released by Xc- after exchange for Cys2; cited from earlier work.
mGlu5-R, sequence (P41594 21-1212): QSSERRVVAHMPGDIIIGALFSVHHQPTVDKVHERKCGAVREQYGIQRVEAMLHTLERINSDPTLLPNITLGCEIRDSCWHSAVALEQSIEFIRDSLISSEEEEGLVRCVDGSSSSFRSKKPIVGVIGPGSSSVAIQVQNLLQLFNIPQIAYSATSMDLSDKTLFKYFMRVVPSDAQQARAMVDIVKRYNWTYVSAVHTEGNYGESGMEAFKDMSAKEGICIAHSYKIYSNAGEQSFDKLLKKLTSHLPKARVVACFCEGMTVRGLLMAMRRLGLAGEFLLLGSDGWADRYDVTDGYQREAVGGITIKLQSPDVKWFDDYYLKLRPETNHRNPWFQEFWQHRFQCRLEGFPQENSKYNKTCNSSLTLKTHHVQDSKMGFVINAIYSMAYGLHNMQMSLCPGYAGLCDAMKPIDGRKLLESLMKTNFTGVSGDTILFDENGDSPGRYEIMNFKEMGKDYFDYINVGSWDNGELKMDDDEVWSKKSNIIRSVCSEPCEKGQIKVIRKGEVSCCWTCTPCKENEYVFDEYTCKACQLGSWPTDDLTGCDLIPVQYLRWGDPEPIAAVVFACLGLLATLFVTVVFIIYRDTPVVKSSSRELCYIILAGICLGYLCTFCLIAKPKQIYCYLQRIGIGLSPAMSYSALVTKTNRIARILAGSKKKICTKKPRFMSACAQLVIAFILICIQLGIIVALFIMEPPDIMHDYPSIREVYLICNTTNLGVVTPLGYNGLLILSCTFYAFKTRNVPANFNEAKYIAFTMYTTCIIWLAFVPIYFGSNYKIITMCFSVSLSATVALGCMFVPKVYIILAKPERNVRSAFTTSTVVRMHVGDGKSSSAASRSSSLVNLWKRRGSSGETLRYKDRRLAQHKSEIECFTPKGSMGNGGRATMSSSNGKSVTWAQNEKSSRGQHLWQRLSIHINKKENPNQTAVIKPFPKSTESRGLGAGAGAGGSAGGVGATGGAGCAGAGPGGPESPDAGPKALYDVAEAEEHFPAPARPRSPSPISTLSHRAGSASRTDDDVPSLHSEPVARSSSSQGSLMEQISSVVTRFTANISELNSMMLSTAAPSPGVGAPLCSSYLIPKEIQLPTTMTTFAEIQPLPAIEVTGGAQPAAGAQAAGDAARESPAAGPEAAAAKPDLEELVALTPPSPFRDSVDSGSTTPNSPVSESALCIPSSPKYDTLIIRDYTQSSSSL
The test system of series [8] is mGlu(2/3)-R. Conditions: rats, striatum; cited from earlier work.
The conditions of series [9]: in ester or salt form, cited from earlier work.
Where [10] appears, read: after the first day of ingesting bupropion.
Where [11] appears, read: prolonged daily ingestion (D-Asp 3000 mg/day about a week; bupropion per prescription, following months).
[12] abbreviates: Table 39C, ingested at times other than 60 minutes before measurements.
[13] abbreviates: Table 39B, ingested at times other than 60 minutes before measurements, various beverages.
The mark [14] stands for this setting: Table 47A, dose in mg per example: Phenibut 450, Homotaurine 50, 150, 200, 250.

On to `CC(NC(C)(C)C)C(=O)c1cccc(Cl)c1` (stereo not drawn) [Bupropion, reference compound], for which, in series [1] (setting [10]), the D score turned out to be 3.0 and the DE score stood at 2.0. In series [1] (setting [11]), this compound came in with a D score of 3.0 and a DE score of 2.0. Also, in [2], the “non-sexual side effect / adverse event” value is reported as “feeling odd/under the influence of a drug”. Moreover, in series [3] (setting [10]), the A score entry is “about 4”, the B score result is “about 4” and the C score entry is given as “less than 1”. In [3] (setting [11]), this compound displayed an A score of 0, a B score of 0, a BM score of 0 and a C score of 0.

Regarding `O=C1c2c(O)cc(O)cc2O[C@H](c2cc(O)c(O)c(O)c2)[C@H]1O` [dihydromyricetin, Dihydromyricetin], the “C, A and B scores when combined with Val and NAC” value in series [3] (at 60 minutes) was “C, A and B scores less than the lowest C, A and B scores of Val and NAC alone”. For the same compound, the “effect on TSF, stated in words” value in series [3] (inventor) is reported as “reduced positive TSF scores”. Moreover, the “C score pattern over time when ingested alone” value in series [4] is reported as “decline pattern”.

Turning to `COc1ccc([C@@H]2CC(=O)c3c(O)cc(O[C@@H]4O[C@H](CO[C@@H]5O[C@@H](C)[C@H](O)[C@@H](O)[C@H]5O)[C@@H](O)[C@H](O)[C@H]4O)cc3O2)cc1O` [hesperidin, Hesperidin], in [4], the “C score pattern over time when combined with Val and NAC” value is “rise, peak, fall pattern of C scores and not a high C, A, and/or B scores”.

With `Cn1c(=O)c2c(ncn2C)n(C)c1=O` [caffeine, Caffeine], the average plasma half-life in series [5] is 5 h.

In [1] (setting [11]), `N[C@H](CC(=O)O)C(=O)O` [D-Asp, D-Aspartic Acid] came in with a D score of 3.0 and a DE score of 2.0. Moreover, in [2], the “non-sexual side effect / adverse event” value is “a small bump from a varicose vein developed on the penis”. Further, in series [3] (setting [11]), the A score is 0, the B score turned out to be 0, the BM score came out at 0 and the C score is on record as 0. The “physical arousal (erections)” value in series [6] is “extremely promoted”.

As for `N[C@@H](CCC(=O)O)C(=O)O` [Glu, Glutamic Acid], the “Glu level at which the extrasynaptic mGlu5-R becomes activated” value in series [7] is 500 µM. Further, in series [8], the “Glu concentration that activated the mGlu(2/3)-R” value was 0.5 µM.

Take `C[C@@H](O)CC(=O)O` [D-Beta-Hydroxybutyrate]: the “blood ketone bodies such as D-Beta-Hydroxybutyrate” value in series [9] (12 grams) is on record as 1.0 mM; in [9] (24 grams), 2.8 mM.

Take `NCC(CC(=O)O)c1ccccc1` (stereo not drawn) [T39:13, Phenibut HCl]: in series [1] (setting [12]), the “D score (strength of the muscle contractions during ejaculation)” value turned out to be 4.0 and the “DE score (ease to achieve ejaculation)” value was determined as 2.0. The “Side Effect” value in series [2] (non-sexual side effect after ingesting treatment substance(s)) is reported as “Felt not normal”. In addition, in [2] (time after ingesting treatment substance(s), sometimes approximated), the “Time of Side Effect” value was in the range of 20 to 120 min. In series [3] (setting [13]), this compound registered an A score of 6.5, a B score of 6.5 and a C score of 1.5. In series [3] (setting [12]), this compound yielded an A score of 6.5, a B score of 6.5 and a C score of 1.5. In series [3] (setting [14]), this compound showed an A score of 6.5 and a B score of 6.5. This compound also displayed a C score in [3] (Table 47A, dose in mg per example: Phenibut 450, Homotaurine 50, 150, 200, 250, beverage and time as in Tables 37, 38, 39) of 1.5.
